Measurements: US10011629B2, “Nucleoside analogs for treatment of the flaviviridae family of viruses and cancer” (Cocrystal Pharma, Inc., priority 2015, dated 2018)

How the values were obtained:
[1] = Cellular toxicity assay in Vero cells; format: cell-based; conditions: African green monkey; for CC50: read-out: Cytotoxicity, CC50; for cytotoxicity: value in parentheses after CC50, read-out: Cytotoxicity (% inhibition)
Method: (§1) The toxicity of the compounds was assessed in Vero, human PBM, CEM (human lymphoblastoid), MT-2, and HepG2 cells, as described previously (see Schinazi R. F., Sommadossi J.-P., Saalmann V., Cannon D. L., Xie M.-Y., Hart G. C., Smith G. A. & Hahn E. F. Antimicrob. Agents Chemother. 1990, 34, 1061-67).
(§2) Cycloheximide was included as positive cytotoxic control, and untreated cells exposed to solvent were included as negative controls. The cytotoxicity IC50 was obtained from the concentration-response curve using the median effective method described previously (see Chou T.-C. & Talalay P. Adv. Enzyme Regul. 1984, 22, 27-55; Belen′kii M. S. & Schinazi R. F. Antiviral Res. 1994, 25, 1-11).

[2] = Cellular toxicity assay in CEM cells; format: cell-based; conditions: human; for CC50: read-out: Cytotoxicity, CC50; for cytotoxicity: value in parentheses after CC50, read-out: Cytotoxicity (% inhibition)
Method: as §1, §2

[3] = Cellular toxicity assay in PBM cells; format: cell-based; conditions: human; for CC50: read-out: Cytotoxicity, CC50; for cytotoxicity: value in parentheses after CC50, read-out: Cytotoxicity (% inhibition)
Method: as §1, §2

HepaRG cells = assay: HepaRG 14-day cell viability assay (CellTiter-Glo); format: cell-based; conditions: 14 days with 4 repeat doses
Method: IC50 in HepaRG Cells for a 14-Day Assay (Non-Proliferating Liver Cells) Using Cell Titer GLO
HepaRG cells are plated one week prior to dosing to allow for the cells to regain its maximal metabolic activity and structure. HepaRG cells are dosed with increasing concentrations of the test compound (final DMSO concentration=0.5%); final test compound concentrations of 100, 30, 10, 3, 1, 0.3, 0.1, 0.03 μM for an eight point dose response curve (n=3 replicates per concentration) and the microtissues are incubated for 14 days with 4 repeat doses. Appropriate controls are simultaneously used as quality controls. Following the dosing period the medium is removed the cell viability is determined using CellTiter-Glo® reagent. The test sample is subsequently transferred to designated wells of a white assay plate and the luminescence determined using a luminometer.
IC50 values are also determined provided a clear dose-response relationship is observed.

[4] = tested on: nuclear DNA (ß-actin or rRNA gene) in HepG2 cells; assay: Nuclear DNA level in HepG2 cells (real-time PCR); format: cell-based, human; conditions: HepG2 cells, 14-day assay; for % inhibition nDNA: 10 μM; for IC50: read-out: IC50 nDNA
Method: (§3) This assay was used in all studies described in this application that determine the effect of compounds on mitochondrial DNA content. In this assay, low-passage-number HepG2 cells were seeded at 5,000 cells/well in collagen-coated 96-well plates. Test compounds were added to the medium to obtain final concentrations of 0 μM, 0.1 μM, 10 μM and 100 μM. […] The mitochondrial cytochrome c oxidase subunit II (COXII) gene and the ß-actin or rRNA gene were amplified from 5 μl of the eluted nucleic acids using a multiplex Q-PCR protocol with suitable primers and probes for both target and reference amplifications. […] For exon 3 of the ß-actin gene (GenBank accession number E01094) the sense, probe, and antisense primers are 5′-[…]-3′ (SEQ ID NO. 4), 5′-6-[…]-3′ (SEQ ID NO. 5) and 5′-[…]-3′ (SEQ ID NO. 6), respectively. The primers and probes for the rRNA gene are commercially available from Applied Biosystems. […] The comparative CT method uses arithmetic formulas in which the amount of target (COXII gene) is normalized to the amount of an endogenous reference (the B-actin or rRNA gene) and is relative to a calibrator (a control with no drug at day 7). The arithmetic formula for this approach is given by 2-ΔΔCT, where ΔΔCT is (CT for average target test sample−CT for target control)−(CT for average reference test−CT for reference control) (see Johnson M R, K Wang, J B Smith, M J Heslin, R B Diasio. Quantitation of dihydropyrimidine dehydrogenase expression by real-time reverse transcription polymerase chain reaction. Anal. Biochem. 2000; 278:175-184). A decrease in mitochondrial DNA content in cells grown in the presence of drug indicated mitochondrial toxicity.

[5] = tested on: mitochondrial DNA (COXII gene) in HepG2 cells; assay: Mitochondrial DNA level in HepG2 cells (real-time PCR); conditions: for % inhibition MitDNA / IC50: HepG2 cells, 14-day assay; for % inhibition MitDNA: 10 μM; for IC50: read-out: IC50 MitDNA
Method: as §3, with “The” for “The comparative CT method uses arithmetic formulas in which the amount of target (COXII gene) is normalized to the amount of an endogenous reference (the B-actin or rRNA gene) and is relative to a calibrator (a control with no drug at day 7). The”

HepG2 cells = assay: Lactic acid production in HepG2 cells; format: cell-based, human; conditions: 14-day assay, 10 μM
Method: To measure the effects of the compounds on lactic acid production, HepG2 cells from a stock culture were diluted and plated in 12-well culture plates at 2.5×10^4 cells per well. […] […] The culture medium was then filtered, and the lactic acid content in the medium was determined using a colorimetric lactic acid assay (Sigma-Aldrich). Since lactic acid product can be considered a marker for impaired mitochondrial function, elevated levels of lactic acid production detected in cells grown in the presence of test compounds would indicate a drug-induced cytotoxic effect.

[6] = tested on: HCV 1b (Huh 7 Clone B cells containing HCV Replicon RNA); assay: HCV replicon assay; format: cell-based; conditions: HCV 1b replicon; for EC50 / EC90: Hepatitis C virus, Huh-7, letter value; for EC50: read-out: EC50 (μM or letter value); for EC90: read-out: EC90 (μM or letter value) or % inhib HCV
Method: Huh 7 Clone B cells containing HCV Replicon RNA were seeded in a 96-well plate at 5000 cells/well, and the compounds tested at 10 μM in triplicate immediately after seeding. Following five days incubation (37° C., 5% CO2), total cellular RNA was isolated by using versaGene RNA purification kit from Gentra. Replicon RNA and an internal control (TaqMan rRNA control reagents, Applied Biosystems) were amplified in a single step multiplex Real Time RT-PCR Assay. The antiviral effectiveness of the compounds was calculated by subtracting the threshold RT-PCR cycle of the test compound from the threshold RT-PCR cycle of the no-drug control (ΔCt HCV). A ΔCt of 3.3 equals a 1-log reduction (equal to 90% less starting material) in Replicon RNA levels. The cytotoxicity of the compounds was also calculated by using the ΔCt rRNA values. 2′-C-Me-C was used as the positive control. To determine EC90 and IC50 values^2, ΔCt: values were first converted into fraction of starting material^3 and then were used to calculate the % inhibition. […]

Q: Which results are given for O=c1ccn([C@@H]2O[C@H](CO)[C@@H](O)[C@]2(F)Br)c(=O)[nH]1?
A: CC50 [1]: > 100 µM; cytotoxicity [1]: 4.2%; CC50 ([2]; CEM lymphoblastoid cells): > 100 µM; cytotoxicity ([2]; CEM lymphoblastoid cells): 21%; CC50 [3]: > 100 µM; cytotoxicity [3]: -24%

Q: With CC(C)OC(=O)[C@H](C)NP(=O)(OC[C@H]1O[C@@H](n2ccc(=O)[nH]c2=O)C(F)(Br)C1O)Oc1ccccc1 (some centres unmarked) as the compound, how does the CC50 [1] read?
A: > 100 µM

Q: And the cytotoxicity [1]?
A: 2.6%

Q: And the CC50 [2]?
A: > 100 µM

Q: And the cytotoxicity [2]?
A: 14%

Q: And the CC50 [3]?
A: > 100 µM

Q: What about the cytotoxicity [3] of the same compound?
A: -3.8%

Q: Which IC50 (HepaRG cells; Homo sapiens, 336 h) does the source give for N#CC(C#N)=NNc1cccc(Cl)c1 [Carbonyl cyanide m-chlorophenyl hydrazone, reference compound] here?
A: 5.08 µM

Q: For Nc1ccn([C@@H]2CS[C@H](CO)O2)c(=O)n1 [Compound 3TC, reference compound], which “% inhibition nDNA” value [4] is on record?
A: 26.8%

Q: And the IC50 [4]?
A: > 10 µM

Q: What about the “% inhibition MitDNA” value [5] of the same compound?
A: 33.3%

Q: And the IC50 [5]?
A: > 10 µM

Q: And the “Lactic acid Production (% of control)” value (HepG2 cells)?
A: 94.9 ± 12.2 % of control

Q: For CC(C)OC(=O)[C@H](C)NP(=O)(OC[C@H]1O[C@@H](n2ccc(N)nc2=O)[C@](F)(Br)[C@@H]1O)Oc1ccccc1 (stereo partly drawn) [Compound 21, Isopropyl ((((2R,3R,4R,5R)-5-(4-amino-2-oxopyrimidin-1(2H)-yl)-4-bromo-4-fluoro-3-hydroxytetrahydrofuran-2-yl)methoxy)(phenoxy)phosphoryl)-L-alaninate], which “EC50 (μM or letter value): value printed as % @ 10 μM” value ([6]; 10 μM) is on record?
A: 67.9% @ 10 μM

Q: What does the source list for CC(C)OC(=O)[C@H](C)N[P@@](=O)(OC[C@H]1O[C@@H](n2ccc(=O)[nH]c2=O)[C@@](F)(Br)C1O)Oc1ccccc1 (some centres unmarked) [Compound 22]?
A: EC50 [6]: 0.1 to 1 µM; EC90 [6]: 1 to 10 µM; IC50 (HepaRG cells; Homo sapiens, 336 h): 7.18 µM

Q: With CC(C)OC(=O)[C@H](C)N[P@](=O)(OC[C@H]1O[C@@H](n2ccc(=O)[nH]c2=O)[C@@](F)(Br)C1O)Oc1ccccc1 (some centres unmarked) [Compound 23] as the compound, how does the EC50 [6] read?
A: 0.1 to 1 µM

Q: And the EC90 [6]?
A: 0.1 to 1 µM

Q: And the IC50 (HepaRG cells; Homo sapiens, 336 h)?
A: 35 µM

Q: With Nc1ccn([C@H]2CC[C@@H](CO)O2)c(=O)n1 [ddc, reference compound] as the compound, how does the “% inhibition nDNA” value [4] read?
A: 88.7%

Q: What about the IC50 [4] of the same compound?
A: < 10 µM

Q: And the “Summary (mitochondrial toxicity)” value [5]?
A: toxic

Q: And the “% inhibition MitDNA” value [5]?
A: 99.9%

Q: What about the IC50 [5] of the same compound?
A: < 10 µM

Q: And the “Lactic acid Production (% of control)” value (HepG2 cells)?
A: 267 ± 25.2 % of control

Q: For Tunicamycin [reference compound], which IC50 (HepaRG cells) is on record?
A: 0.011 µM
